What was measured:
[1] = biological target: RON (human) (Homo sapiens, UniProt Q04912); test: RON (human) AlphaScreen kinase assay, Km of ATP; type: biochemical; settings: AlphaScreen, Km of ATP; read-out: RON biochemical IC50
How it was run: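 Reaction was started with enzyme and run 30 min at RT. PT66 donor/acceptor beads in an EDTA-containing Tris pH 7.5 buffer were then added, and the signal was read after 1 h.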

[2] = biological target: MET (human) (Homo sapiens, UniProt P08581); test: MET (human) AlphaScreen kinase assay, Km of ATP; type: biochemical; settings: AlphaScreen, Km of ATP; read-out: Met biochemical IC50
How it was run: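 Human MET at lot-optimised concentration in 50 mM Tris pH 7.4 buffer with 1 mM DTT, compound at 1% DMSO final; enzyme starts the reaction, 60 min at RT.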

MET (human), sequence (P08581 25-1390): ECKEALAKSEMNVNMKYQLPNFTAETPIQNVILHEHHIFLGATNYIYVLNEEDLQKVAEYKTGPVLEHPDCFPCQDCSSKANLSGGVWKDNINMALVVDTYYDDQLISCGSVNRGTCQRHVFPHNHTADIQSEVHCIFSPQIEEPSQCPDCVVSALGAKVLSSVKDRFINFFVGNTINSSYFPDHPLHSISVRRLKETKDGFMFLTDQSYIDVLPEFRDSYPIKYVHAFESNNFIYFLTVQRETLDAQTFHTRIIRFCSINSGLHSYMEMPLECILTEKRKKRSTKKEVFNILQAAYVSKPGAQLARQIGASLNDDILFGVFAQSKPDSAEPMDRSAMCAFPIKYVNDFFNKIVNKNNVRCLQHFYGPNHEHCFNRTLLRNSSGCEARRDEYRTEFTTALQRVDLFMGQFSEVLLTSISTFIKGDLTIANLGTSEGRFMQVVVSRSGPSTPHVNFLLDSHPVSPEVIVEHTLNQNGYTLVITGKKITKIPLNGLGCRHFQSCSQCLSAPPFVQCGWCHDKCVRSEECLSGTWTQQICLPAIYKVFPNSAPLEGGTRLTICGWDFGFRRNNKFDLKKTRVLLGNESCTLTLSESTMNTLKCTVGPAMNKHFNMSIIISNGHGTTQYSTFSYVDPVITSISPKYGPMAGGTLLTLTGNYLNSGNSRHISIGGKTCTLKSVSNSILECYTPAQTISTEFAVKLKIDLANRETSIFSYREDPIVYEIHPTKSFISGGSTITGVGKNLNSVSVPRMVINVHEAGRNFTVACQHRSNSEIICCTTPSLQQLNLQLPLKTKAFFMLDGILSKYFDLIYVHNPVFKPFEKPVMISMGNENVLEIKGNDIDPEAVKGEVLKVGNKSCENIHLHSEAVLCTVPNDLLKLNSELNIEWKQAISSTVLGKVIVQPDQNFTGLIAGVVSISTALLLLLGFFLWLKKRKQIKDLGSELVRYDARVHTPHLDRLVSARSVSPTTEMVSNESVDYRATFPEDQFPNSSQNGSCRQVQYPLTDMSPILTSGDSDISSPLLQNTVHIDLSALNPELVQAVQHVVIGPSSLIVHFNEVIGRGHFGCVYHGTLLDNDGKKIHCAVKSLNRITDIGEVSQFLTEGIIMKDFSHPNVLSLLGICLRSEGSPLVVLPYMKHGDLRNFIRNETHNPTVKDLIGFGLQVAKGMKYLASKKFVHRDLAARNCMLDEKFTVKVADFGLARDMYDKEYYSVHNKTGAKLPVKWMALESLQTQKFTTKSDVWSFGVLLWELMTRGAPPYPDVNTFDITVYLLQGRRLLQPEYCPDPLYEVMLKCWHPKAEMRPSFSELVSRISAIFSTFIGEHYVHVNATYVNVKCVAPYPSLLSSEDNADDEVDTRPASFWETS
RON (human), sequence (Q04912 25-1400): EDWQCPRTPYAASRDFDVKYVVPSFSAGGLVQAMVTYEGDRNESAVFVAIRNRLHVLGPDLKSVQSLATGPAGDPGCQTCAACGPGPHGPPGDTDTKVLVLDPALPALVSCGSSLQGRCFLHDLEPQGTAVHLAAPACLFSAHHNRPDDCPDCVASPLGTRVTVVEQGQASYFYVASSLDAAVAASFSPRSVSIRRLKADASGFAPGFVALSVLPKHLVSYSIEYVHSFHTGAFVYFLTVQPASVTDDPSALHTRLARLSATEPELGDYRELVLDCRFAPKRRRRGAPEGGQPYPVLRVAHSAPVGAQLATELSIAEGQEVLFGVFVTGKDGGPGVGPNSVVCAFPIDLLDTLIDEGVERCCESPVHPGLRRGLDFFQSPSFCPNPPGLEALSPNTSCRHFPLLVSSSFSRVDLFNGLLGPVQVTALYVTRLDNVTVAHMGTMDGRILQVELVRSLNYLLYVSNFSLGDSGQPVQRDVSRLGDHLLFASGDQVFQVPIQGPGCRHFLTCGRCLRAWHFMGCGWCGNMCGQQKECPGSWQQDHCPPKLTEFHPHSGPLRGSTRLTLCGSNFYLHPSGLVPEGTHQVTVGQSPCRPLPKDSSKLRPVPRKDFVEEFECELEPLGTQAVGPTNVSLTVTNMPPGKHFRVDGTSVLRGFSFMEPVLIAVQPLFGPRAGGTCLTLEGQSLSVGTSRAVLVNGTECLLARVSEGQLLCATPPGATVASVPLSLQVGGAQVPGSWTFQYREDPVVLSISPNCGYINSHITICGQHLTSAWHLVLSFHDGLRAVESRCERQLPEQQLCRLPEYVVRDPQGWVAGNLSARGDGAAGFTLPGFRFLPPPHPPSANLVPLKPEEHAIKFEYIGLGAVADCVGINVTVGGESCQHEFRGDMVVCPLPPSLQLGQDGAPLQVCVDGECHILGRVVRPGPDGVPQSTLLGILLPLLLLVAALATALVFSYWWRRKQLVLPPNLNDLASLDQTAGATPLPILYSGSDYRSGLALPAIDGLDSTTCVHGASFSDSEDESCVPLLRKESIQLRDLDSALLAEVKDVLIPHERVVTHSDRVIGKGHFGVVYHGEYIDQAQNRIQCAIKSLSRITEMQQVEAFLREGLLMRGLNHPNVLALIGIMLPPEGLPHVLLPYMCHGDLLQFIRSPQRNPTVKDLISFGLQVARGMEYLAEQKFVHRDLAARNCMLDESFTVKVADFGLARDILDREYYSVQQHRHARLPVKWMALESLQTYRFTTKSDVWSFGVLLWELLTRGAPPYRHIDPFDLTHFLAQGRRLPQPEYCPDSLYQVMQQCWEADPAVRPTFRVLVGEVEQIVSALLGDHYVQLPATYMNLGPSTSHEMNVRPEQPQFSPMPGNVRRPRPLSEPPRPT

Row | Structure (SMILES) | IC50 [1] [nM] | IC50 [2] [nM]
1 | CC(Cc1ccccc1Cl)Oc1c(N)ncc2c(-c3cnn(C4CCNCC4)c3)coc12 (centres unmarked) [Example 426, 7-[2-(2-Chlorophenyl)-1-methylethoxy]-3-(1-piperidin-4-yl-1H-pyrazol-4-yl)furo[3,2-c]pyridin-6-ylamine] | 500 to 5000 | < 500
2 | CC(Cc1cccc(Cl)c1)Oc1c(N)ncc2c(-c3cnn(C4CCNCC4)c3)coc12 (centres unmarked) [Example 427, 7-[2-(3-Chlorophenyl)-1-methylethoxy]-3-(1-piperidin-4-yl-1H-pyrazol-4-yl)furo[3,2-c]pyridin-6-ylamine] | < 500 | < 500
3 | CC(Cc1ccc(Cl)c(Cl)c1)Oc1c(N)ncc2c(-c3cnn(C4CCNCC4)c3)coc12 (centres unmarked) [Example 428, 7-[2-(3,4-Dichlorophenyl)-1-methylethoxy]-3-(1-piperidin-4-yl-1H-pyrazol-4-yl)furo[3,2-c]pyridin-6-ylamine] | < 500 | 500 to 5000
4 | COc1ccc(CC(C)Oc2c(N)ncc3c(-c4cnn(C5CCNCC5)c4)coc23)cc1 (centres unmarked) [Example 431, 7-[2-(4-Methoxyphenyl)-1-methylethoxy]-3-(1-piperidin-4-yl-1H-pyrazol-4-yl)furo[3,2-c]pyridin-6-ylamine] | 500 to 5000 | 500 to 5000
5 | CC(Oc1c(N)ncc2c(-c3cnn(C4CCNCC4)c3)coc12)c1ccc2ccccc2c1 (centres unmarked) [Example 432, 7-(1-Naphthalen-2-ylethoxy)-3-(1-piperidin-4-yl-1H-pyrazol-4-yl)furo[3,2-c]pyridin-6-ylamine] | 500 to 5000 | 500 to 5000
6 | N#CCc1ccccc1COc1c(N)ncc2c(-c3cnn(C4CCNCC4)c3)coc12 [Example 433, {2-[6-Amino-3-(1-piperidin-4-yl-1H-pyrazol-4-yl)furo[3,2-c]pyridin-7-yloxymethyl]phenyl}acetonitrile] | 500 to 5000 | 500 to 5000
7 | CC(Oc1c(N)ncc2c(-c3cnn(C4CCNCC4)c3)coc12)c1cc(F)cc(Br)c1 (centres unmarked) [Example 434, 7-[1-(3-Bromo-5-fluorophenyl)ethoxy]-3-(1-piperidin-4-yl-1H-pyrazol-4-yl)furo[3,2-c]pyridin-6-ylamine] | < 500 | < 500
8 | CC(Cc1ccccc1C(F)(F)F)Oc1c(N)ncc2c(-c3cnn(C4CCNCC4)c3)coc12 (centres unmarked) [Example 435, 7-[1-Methyl-2-(2-trifluoromethylphenyl)ethoxy]-3-(1-piperidin-4-yl-1H-pyrazol-4-yl)furo[3,2-c]pyridin-6-ylamine] | 500 to 5000 | < 500
9 | CC(Cc1ccccc1Br)Oc1c(N)ncc2c(-c3cnn(C4CCNCC4)c3)coc12 (centres unmarked) [Example 436, 7-[2-(2-Bromophenyl)-1-methylethoxy]-3-(1-piperidin-4-yl-1H-pyrazol-4-yl)furo[3,2-c]pyridin-6-ylamine] | < 500 | < 500
10 | COc1cccc(CC(C)Oc2c(N)ncc3c(-c4cnn(C5CCNCC5)c4)coc23)c1 (centres unmarked) [Example 437, 7-[2-(3-Methoxyphenyl)-1-methylethoxy]-3-(1-piperidin-4-yl-1H-pyrazol-4-yl)furo[3,2-c]pyridin-6-ylamine] | < 500 | < 500
11 | CC(Cc1cccc(Br)c1)Oc1c(N)ncc2c(-c3cnn(C4CCNCC4)c3)coc12 (centres unmarked) [Example 439, 7-[2-(3-Bromophenyl)-1-methylethoxy]-3-(1-piperidin-4-yl-1H-pyrazol-4-yl)furo[3,2-c]pyridin-6-ylamine] | < 500 | < 500
12 | CC(Cc1c(Cl)cccc1C(F)(F)F)Oc1c(N)ncc2c(-c3cnn(C4CCNCC4)c3)coc12 (centres unmarked) [Example 440, 7-[2-(2-Chloro-6-trifluoromethylphenyl)-1-methylethoxy]-3-(1-piperidin-4-yl-1H-pyrazol-4-yl)furo[3,2-c]pyridin-6-ylamine] | 500 to 5000 | < 500
13 | CC(Cc1c(F)cccc1C(F)(F)F)Oc1c(N)ncc2c(-c3cnn(C4CCNCC4)c3)coc12 (centres unmarked) [Example 441, 7-[2-(2-Fluoro-6-trifluoromethylphenyl)-1-methylethoxy]-3-(1-piperidin-4-yl-1H-pyrazol-4-yl)furo[3,2-c]pyridin-6-ylamine] | 500 to 5000 | < 500
14 | CC(Oc1c(N)ncc2c(-c3cnn(C4CCNCC4)c3)coc12)c1c(Cl)cc(Br)cc1Cl (centres unmarked) [Example 442, 7-[1-(4-Bromo-2,6-dichlorophenyl)ethoxy]-3-(1-piperidin-4-yl-1H-pyrazol-4-yl)furo[3,2-c]pyridin-6-ylamine] | < 500 | < 500
15 | CC(Oc1c(N)ncc2c(-c3cnn(C4CCNCC4)c3)coc12)c1cccc(-c2ccccc2)c1 (centres unmarked) [Example 444, 7-(1-Biphenyl-3-ylethoxy)-3-(1-piperidin-4-yl-1H-pyrazol-4-yl)furo[3,2-c]pyridin-6-ylamine] | 500 to 5000 | 500 to 5000
16 | CC(Oc1c(N)ncc2c(-c3cnn(C4CCNCC4)c3)coc12)c1cccc(-c2ccc[nH]2)c1 (centres unmarked) [Example 445] | 500 to 5000 | 500 to 5000

Row | Structure (SMILES) | IC50 [1] [nM] | IC50 [2] [nM]
17 | CC(Oc1c(N)ncc2c(-c3cnn(C4CCNCC4)c3)coc12)c1cccc(-c2ccn[nH]2)c1 (centres unmarked) [Example 446] | < 500 | 500 to 5000
18 | CC(Oc1c(N)ncc2c(-c3cnn(C4CCNCC4)c3)coc12)c1cccc(-c2cn[nH]c2)c1 (centres unmarked) [Example 447] | 500 to 5000 | 500 to 5000
19 | CC(Oc1c(N)ncc2c(-c3cnn(C4CCNCC4)c3)coc12)c1cccc(-c2cnn(C)c2)c1 (centres unmarked) [Example 448, 7-{1-[3-(1-Methyl-1H-pyrazol-4-yl)phenyl]ethoxy}-3-(1-piperidin-4-yl-1H-pyrazol-4-yl)furo[3,2-c]pyridin-6-ylamine] | 500 to 5000 | 500 to 5000
20 | CC(Oc1c(N)ncc2c(-c3cnn(C4CCNCC4)c3)coc12)c1cc(F)cc(-c2ccccc2)c1 (centres unmarked) [Example 449, 7-[1-(5-Fluorobiphenyl-3-yl)ethoxy]-3-(1-piperidin-4-yl-1H-pyrazol-4-yl)furo[3,2-c]pyridin-6-ylamine] | 500 to 5000 | 500 to 5000
21 | CC(Oc1c(N)ncc2c(-c3cnn(C4CCNCC4)c3)coc12)c1cc(F)cc(-c2ccn[nH]2)c1 (centres unmarked) [Example 450, 7-{1-[3-Fluoro-5-(2H-pyrazol-3-yl)phenyl]ethoxy}-3-(1-piperidin-4-yl-1H-pyrazol-4-yl)furo[3,2-c]pyridin-6-ylamine] | 500 to 5000 | < 500
22 | CC(Oc1c(N)ncc2c(-c3cnn(C4CCNCC4)c3)coc12)c1cc(F)cc(-c2cn[nH]c2)c1 (centres unmarked) [Example 451, 7-{1-[3-Fluoro-5-(1H-pyrazol-4-yl)phenyl]ethoxy}-3-(1-piperidin-4-yl-1H-pyrazol-4-yl)furo[3,2-c]pyridin-6-ylamine] | 500 to 5000 | < 500
23 | CC(Oc1c(N)ncc2c(-c3cnn(C4CCNCC4)c3)coc12)c1cc(F)cc(-c2cnn(C)c2)c1 (centres unmarked) [Example 452, 7-{1-[3-Fluoro-5-(1-methyl-1H-pyrazol-4-yl)phenyl]ethoxy}-3-(1-piperidin-4-yl-1H-pyrazol-4-yl)furo[3,2-c]pyridin-6-ylamine] | 500 to 5000 | < 500
24 | CC(Oc1c(N)ncc2c(C3=CCN(C(N)=O)CC3)coc12)c1c(Cl)ccc(F)c1Cl (centres unmarked) [Example 455, 4-{6-Amino-7-[1-(2,6-dichloro-3-fluorophenyl)ethoxy]furo[3,2-c]pyridin-3-yl}-3,6-dihydro-2H-pyridine-1-carboxamide] | 500 to 5000 | < 500
25 | C[C@H](Oc1c(N)ncc2c(C3=CCN(C(N)=O)CC3)coc12)c1c(Cl)ccc(F)c1Cl [Example 456, 4-{6-Amino-7-[(S)-1-(2,6-dichloro-3-fluorophenyl)ethoxy]furo[3,2-c]pyridin-3-yl}-3,6-dihydro-2H-pyridine-1-carboxamide] | 500 to 5000 | < 500
26 | CC(Oc1c(N)ncc2c(C3=CCN(C(N)=O)CC3)coc12)c1c(Br)ccc(F)c1Cl (centres unmarked) [Example 457, 4-{6-Amino-7-[1-(6-bromo-2-chloro-3-fluorophenyl)ethoxy]furo[3,2-c]pyridin-3-yl}-3,6-dihydro-2H-pyridine-1-carboxamide] | 500 to 5000 | < 500
27 | C#CCC(Oc1c(N)ncc2c(C3=CCN(C(N)=O)CC3)coc12)c1c(Cl)ccc(F)c1Cl (centres unmarked) [Example 459, 4-(6-Amino-7-{[1-(2,6-dichloro-3-fluorophenyl)but-3-yn-1-yl]oxy}furo[3,2-c]pyridin-3-yl)-3,6-dihydropyridine-1(2H)-carboxamide] | 500 to 5000 | < 500
28 | Nc1ncc2ccoc2c1OCc1ccc(NC(=O)c2cccn(-c3ccc(F)cc3)c2=O)cc1 [Example 461, 1-(4-Fluorophenyl)-2-oxo-1,2-dihydropyridine-3-carboxylic acid [4-(6-aminofuro[3,2-c]pyridin-7-yloxymethyl)phenyl]amide] | > 20000 | 500 to 5000
29 | Cn1c(Cc2ccccc2)ncc(-c2ccc(COc3c(N)ncc4c(-c5cnn(C6CCNCC6)c5)coc34)cc2)c1=O [Example 462, 5-{4-[6-Amino-3-(1-piperidin-4-yl-1H-pyrazol-4-yl)-furo[3,2-c]pyridin-7-yloxymethyl]-phenyl}-2-benzyl-3-methyl-3H-pyrimidin-4-one] | < 500 | < 500
30 | Cn1c(Cc2ccccc2)ncc(-c2ccc(COc3c(N)ncc4c(-c5cnn(C6CCNCC6)c5)coc34)c(F)c2)c1=O [Example 463, 5-{4-[6-Amino-3-(1-piperidin-4-yl-1H-pyrazol-4-yl)-furo[3,2-c]pyridin-7-yloxymethyl]-3-fluorophenyl}-2-benzyl-3-methyl-3H-pyrimidin-4-one] | < 500 | < 500
31 | Cn1c(Cc2ccccc2)ncc(-c2ccc(COc3c(N)ncc4c(Br)coc34)cc2)c1=O [Example 465, 5-[4-(6-Amino-3-bromofuro[3,2-c]pyridin-7-yloxymethyl)phenyl]-2-benzyl-3-methyl-3H-pyrimidin-4-one] | 5000 to 20000 | 500 to 5000

— patent US8022206B2 (OSI Pharmaceuticals, LLC, priority 2008, dated 2011)
